This note sets out measurements from patent US10035800B2 (AbbVie Inc., priority 2013, dated 2018).

pKi: −log10 of the molar value. Bounds are passed on as bounds.

For one experiment, the target named is T1, BRD4 (BDI_K57-E168) (Homo sapiens, UniProt O60885).
T1 construct: BD1: amino acids K57-E168; made in house
As to the kind of experiment: TR-FRET bromodomain binding assay, first bromodomain of BRD4. The following applies: TR-FRET assay protocol G (compound 0.92 μM-15 pM); 100 nM probe. The method, then: (§1) Bromodomain Domain Binding Assay
(§2) A time-resolved fluorescence resonance energy transfer (TR-FRET) assay was used to determine the affinities of compounds of the Examples listed in Table 1 for each bromodomain of BRD4. His-tagged first (BD1: amino acids K57-E168) and second (BD2: amino acids […]) bromodomains of BRD4 were expressed and purified. An Alexa647-labeled BET-inhibitor was used as the fluorescent probe in the assay.
(§3) Compound dilution series were prepared in DMSO via an approximately 3-fold serial dilution from one of the following: […]
(§4) Assay method E: 0.47 mM to 7.8 nM […]
(§5) Assay method G: 0.047 mM to 0.78 nM
(§6) or 5-fold serial dilution from one of the following: […]
(§7) Assay method B: 2.5 mM-797 nM […]
(§8) For Assay methods B, E, and G: Compound dilutions were added directly into white, low-volume assay plates (Perkin Elmer Proxiplate 384 Plus#6008280) using a Labcyte Echo in conjunction with Labcyte Access and Thermo Multidrop CombinL robotics. Compounds were then suspended in eight microliters (μL) of assay buffer (20 mM Sodium Phosphate, pH 6.0, 50 mM NaCl, 1 mM Ethylenediaminetetraacetic acid disodium salt dihydrate, 0.01% Triton X-100, 1 mM DL-Dithiothreitol) containing His-tagged bromodomain, Europium-conjugated anti-His antibody (Invitrogen PV5596) and Alexa-647-conjugated probe.
(§9) The final concentration of 1× assay mixture for assay methods A, B, C, D, E, F, and G contains 2% DMSO, 8 nM His-tagged bromodomain, 1 nM Europium-conjugated anti-His-tag antibody and 100 nM or 30 nM probe (for BDI or BDII, respectively) and compound concentration in the range of: 50 μM-16 nM for method A, 49.02 μM-15.63 nM for method B, 25 μM-423 pM for method C, 10 μM-169 pM for method D, 9.19 μM-150 pM for method E, 5 μM-85 pM for method F, and 0.92 μM-15 pM for method G.
(§10) After a one-hour equilibration at room temperature, TR-FRET ratios were determined using an Envision multilabel plate reader (Ex 340, Em 495/520).
(§11) TR-FRET data were normalized to the means of 24 no-compound controls (“high”) and 8 controls containing 1 μM un-labeled probe (“low”). Percent inhibition was plotted as a function of compound concentration and the data were fit with the 4 parameter logistic equation to obtain IC50s. Inhibition constants (Ki) were calculated from the IC50s, probe Kd and probe concentration. Typical Z′ values were between 0.65 and 0.75. The minimum significant ratio was determined to evaluate assay reproducibility (Eastwood et al., (2006) J Biomol Screen, 11: 253-261). The MSR was determined to be 2.03 for BDI and 1.93 for BDII, and a moving MSR (last six run MSR overtime) for both BDI and BDII was typically <3.
(In general: Time-resolved FRET reads energy transfer from a long-lived donor to a nearby acceptor.)

The next experiment addresses T2, BRD4 (BDII_E352-M457) (Homo sapiens, UniProt O60885).
T2 construct: protocol; made in house
The experiment is described as follows: TR-FRET bromodomain binding assay, second bromodomain of BRD4. The note with it: TR-FRET assay protocol G (compound 0.92 μM-15 pM); 30 nM probe. As for the experimental part: as §1, §2, §3, §4, §5, §6, §7, §8, §9, §10, §11

As to `Cn1cc2c3c(c[nH]c3c1=O)CN(C(=O)c1ccc(F)cc1F)c1ccc(CS(C)(=O)=O)cc1-2` [Example 112, 4-(2,4-difluorobenzoyl)-10-methyl-7-((methylsulfonyl)methyl)-3,4-dihydro-1H-1,4,10-triazadibenzo[cd,f]azulen-11(10H)-one], the pKi (usually the negative decadic logarithm of the Ki, by convention in mol/L) at BRD4 (BDI_K57-E168) was 7.27; on BRD4 (BDII_E352-M457), 7.82.

For the molecule `CC1OCCC1N1Cc2c[nH]c3c(=O)n(C)cc(c23)-c2cc(CS(C)(=O)=O)ccc21` (stereo not shown) [Example 180, 10-methyl-7-((methylsulfonyl)methyl)-4-(2-methyltetrahydrofuran-3-yl)-3,4-dihydro-1H-1,4,10-triazadibenzo[cd,f]azulen-11(10H)-one], the pKi at BRD4 (BDI_K57-E168) was 8.82; at BRD4 (BDII_E352-M457), 8.57.

Turning to `COc1ccc(OC(=O)N2Cc3c[nH]c4c(=O)n(C)cc(c34)-c3cc(CS(C)(=O)=O)ccc32)cc1` [Example 97, 4-methoxyphenyl 10-methyl-7-((methylsulfonyl)methyl)-11-oxo-10,11-dihydro-1H-1,4,10-triazadibenzo[cd,f]azulene-4(3H)-carboxylate], the pKi on BRD4 (BDI_K57-E168) is 8.49; at BRD4 (BDII_E352-M457), 8.87.

In the case of `Cn1cc2c3c(c[nH]c3c1=O)CN(C(=O)NCC1CCCCC1)c1ccc(CS(C)(=O)=O)cc1-2` [Example 67, N-(cyclohexylmethyl)-10-methyl-7-((methylsulfonyl)methyl)-11-oxo-10,11-dihydro-1H-1,4,10-triazadibenzo[cd,f]azulene-4(3H)-carboxamide], the pKi at BRD4 (BDI_K57-E168) was below 6.62; at BRD4 (BDII_E352-M457), below 6.39.

As for `Cn1cc2c3c(c[nH]c3c1=O)CN(C(=O)CCC1CCCC1)c1ccc(CS(C)(=O)=O)cc1-2` [Example 103, 4-(3-cyclopentylpropanoyl)-10-methyl-7-((methylsulfonyl)methyl)-3,4-dihydro-1H-1,4,10-triazadibenzo[cd,f]azulen-11(10H)-one], the pKi at BRD4 (BDI_K57-E168) was 8.09; on BRD4 (BDII_E352-M457), 8.33.

Regarding `Cn1cc2c3c(c[nH]c3c1=O)C(C(=O)NCC(C)(C)O)N(c1ccc(F)cc1F)c1ccc(CS(C)(=O)=O)cc1-2` (stereo not shown) [Example 165, 4-(2,4-difluorophenyl)-N-(2-hydroxy-2-methylpropyl)-10-methyl-7-((methylsulfonyl)methyl)-11-oxo-3,4,10,11-tetrahydro-1H-1,4,10-triazadibenzo[cd,f]azulene-3-carboxamide], the pKi on BRD4 (BDI_K57-E168) is 7.09; at BRD4 (BDII_E352-M457) it was 7.10.

`Cn1cc2c3c(c[nH]c3c1=O)C(C(=O)NCCC#N)N(c1ccc(F)cc1F)c1ccc(CS(C)(=O)=O)cc1-2` (racemic) [Example 154, N-(2-cyanoethyl)-4-(2,4-difluorophenyl)-10-methyl-7-((methylsulfonyl)methyl)-11-oxo-3,4,10,11-tetrahydro-1H-1,4,10-triazadibenzo[cd,f]azulene-3-carboxamide]: the pKi on BRD4 (BDI_K57-E168) was 7.29; at BRD4 (BDII_E352-M457), 7.27.

`CCOC(=O)C1CCC(CNC(=O)N2Cc3c[nH]c4c(=O)n(C)cc(c34)-c3cc(CS(C)(=O)=O)ccc32)CC1` (stereo not shown) [Example 72, ethyl 4-((10-methyl-7-((methylsulfonyl)methyl)-11-oxo-3,4,10,11-tetrahydro-1H-1,4,10-triazadibenzo[cd,f]azulene-4-carboxamido)methyl)cyclohexanecarboxylate]: the pKi is 7.58 at BRD4 (BDI_K57-E168) and 7.43 at BRD4 (BDII_E352-M457).

Take `Cn1cc2c3c(c[nH]c3c1=O)C(C(=O)NC1(CO)CC1)N(c1ccc(F)cc1F)c1ccc(CS(C)(=O)=O)cc1-2` (racemic) [Example 166, 4-(2,4-difluorophenyl)-N-(1-(hydroxymethyl)cyclopropyl)-10-methyl-7-((methylsulfonyl)methyl)-11-oxo-3,4,10,11-tetrahydro-1H-1,4,10-triazadibenzo[cd,f]azulene-3-carboxamide]: the negative logarithm of the Ki (pKi) on BRD4 (BDI_K57-E168) is 7.22; on BRD4 (BDII_E352-M457), 7.13.

Take `CC(C1CCOC1=O)N1Cc2c[nH]c3c(=O)n(C)cc(c23)-c2cc(CS(C)(=O)=O)ccc21` (stereo not shown) [Example 184, 10-methyl-7-((methylsulfonyl)methyl)-4-(1-(2-oxotetrahydrofuran-3-yl)ethyl)-3,4-dihydro-1H-1,4,10-triazadibenzo[cd,f]azulen-11(10H)-one]: the results for the pKi at BRD4 (BDI_K57-E168) and on BRD4 (BDII_E352-M457) were 8.36 and 8.17, respectively.

In the case of `Cn1cc2c3c(c[nH]c3c1=O)CN(C(=O)OCCF)c1ccc(CS(C)(=O)=O)cc1-2` [Example 96, 2-fluoroethyl 10-methyl-7-((methylsulfonyl)methyl)-11-oxo-10,11-dihydro-1H-1,4,10-triazadibenzo[cd,f]azulene-4(3H)-carboxylate], the pKi at BRD4 (BDI_K57-E168) is 8.46; on BRD4 (BDII_E352-M457), 8.79.

In the case of `COc1ccccc1S(=O)(=O)N1Cc2c[nH]c3c(=O)n(C)cc(c23)-c2cc(CS(C)(=O)=O)ccc21` [Example 78, 4-((2-methoxyphenyl)sulfonyl)-10-methyl-7-((methylsulfonyl)methyl)-3,4-dihydro-1H-1,4,10-triazadibenzo[cd,f]azulen-11(10H)-one], the figures for the pKi on BRD4 (BDI_K57-E168) and on BRD4 (BDII_E352-M457) were 6.67 and 6.90, respectively.

In the case of `CN1CCC(N2Cc3c[nH]c4c(=O)n(C)cc(c34)-c3cc(CS(C)(=O)=O)ccc32)C1` (stereo not shown) [Example 187], the pKi on BRD4 (BDI_K57-E168) is 8.24; on BRD4 (BDII_E352-M457), 7.30.

Turning to `Cn1cc2c3c(c[nH]c3c1=O)C(C(=O)NC1CCCCC1)N(c1ccc(F)cc1F)c1ccc(CS(C)(=O)=O)cc1-2` (stereo not shown) [Example 158, N-cyclohexyl-4-(2,4-difluorophenyl)-10-methyl-7-((methylsulfonyl)methyl)-11-oxo-3,4,10,11-tetrahydro-1H-1,4,10-triazadibenzo[cd,f]azulene-3-carboxamide], the pKi was 7.22 at BRD4 (BDI_K57-E168) and 7.11 at BRD4 (BDII_E352-M457).

Regarding `Cn1cc2c3c(c[nH]c3c1=O)CN(C(=O)CCc1ccccc1)c1ccc(CS(C)(=O)=O)cc1-2` [Example 116, 10-methyl-7-((methylsulfonyl)methyl)-4-(3-phenylpropanoyl)-3,4-dihydro-1H-1,4,10-triazadibenzo[cd,f]azulen-11(10H)-one], the pKi is 7.80 on BRD4 (BDI_K57-E168) and 7.95 at BRD4 (BDII_E352-M457).

Take “4-((1-isopropylpiperidin-4-yl)methyl)-10-methyl-7-((methylsulfonyl)methyl)-3,4-dihydro-1H-1,4,10-triazadibenzo[cd,f]azulen-11(10H)-one [Example 183]”: the pKi was 8.42 at BRD4 (BDI_K57-E168) and 7.81 on BRD4 (BDII_E352-M457).

For `Cn1cc2c3c(c[nH]c3c1=O)CN(C(=O)c1cccc3ccccc13)c1ccc(CS(C)(=O)=O)cc1-2` [Example 114, 4-(1-naphthoyl)-10-methyl-7-((methylsulfonyl)methyl)-3,4-dihydro-1H-1,4,10-triazadibenzo[cd,f]azulen-11(10H)-one], the pKi at BRD4 (BDI_K57-E168) is 6.95; on BRD4 (BDII_E352-M457) it was 7.59.

For `Cc1ccc(S(=O)(=O)N2Cc3c[nH]c4c(=O)n(C)cc(c34)-c3cc(CS(C)(=O)=O)ccc32)cc1` [Example 74, 10-methyl-7-((methylsulfonyl)methyl)-4-tosyl-3,4-dihydro-1H-1,4,10-triazadibenzo[cd,f]azulen-11(10H)-one], the values for the pKi at BRD4 (BDI_K57-E168) and at BRD4 (BDII_E352-M457) were below 6.62 and 6.43, respectively.

As to `CCc1ccc(CCNC(=O)N2Cc3c[nH]c4c(=O)n(C)cc(c34)-c3cc(CS(C)(=O)=O)ccc32)cc1` [Example 63, N-(4-ethylphenethyl)-10-methyl-7-((methylsulfonyl)methyl)-11-oxo-10,11-dihydro-1H-1,4,10-triazadibenzo[cd,f]azulene-4(3H)-carboxamide], the pKi at BRD4 (BDI_K57-E168) was 7.09; on BRD4 (BDII_E352-M457), 7.13.

For `Cn1cc2c3c(c[nH]c3c1=O)C(c1cc(C(C)(C)C)cc(C(C)(C)C)c1)N(c1ccc(F)cc1F)c1ccc(CS(C)(=O)=O)cc1-2` (stereo not shown) [Example 223, 3-(3,5-di-tert-butylphenyl)-4-(2,4-difluorophenyl)-10-methyl-7-((methylsulfonyl)methyl)-3,4-dihydro-1H-1,4,10-triazadibenzo[cd,f]azulen-11(10H)-one], the pKi on BRD4 (BDI_K57-E168) was below 6.62; at BRD4 (BDII_E352-M457), below 6.39.
